Reference: US7863295B2, “Treatments for neuropathy” (Children's Medical Center Corporation, priority 2008, dated 2011)

Assays:
[1] = system: GFAP-DN-erbB4 mice; assay: Hot plate test (thermal nociception) in GFAP-DN-erbB4 mice treated topically with XIB4035 cream; assay type: in vivo, mouse; conditions: cream 1.2 mM on hind paws twice daily for 4 weeks from P21, vs control cream
Protocol: (§1) We generated a cream containing XIB4035 (1.2 mM) and applied it directly to the hind paws of GFAP-DN-erbB4 and wild type mice twice daily for a period of 4 weeks starting at the time of weaning (P21). […] Thus, these experiments would test whether activation of Ret signaling has therapeutic effects after disease onset. To control for potential effects of the control cream, mice of both genotypes were treated in the same way with the base cream without the drug. Mice were tested for responses to noxious thermal stimulus prior to the initiation of treatment and every 7 days throughout the treatment period. […] Together, these findings indicate that topical treatment with XIB4035 preserves the ability of mice with SFN to respond to noxious heat stimulus without inducing hypersensitivity.
(§2) Animals and induction of neuropathy using RTX. Transgenic mouse lines used were as previously described (6, 8). Animals were kept in the animal facility with free access to food and water. Behavioral experiments were performed in a quiet environment at the same time of day. […] Paw withdrawal latency was measured as the time required for the mouse to visibly respond to the thermal stimulus, e.g. licking paws, lifting paws, or jumping off of the plate. […] The threshold was determined as the lowest force that evoked a visible withdrawal response. […]

[2] = system: wild type mice; assay: Hot plate test (thermal nociception) in wild type mice treated topically with XIB4035 cream; assay type: in vivo; conditions: cream 1.2 mM on hind paws twice daily for 4 weeks from P21
Protocol: as §1, §2

[3] = system: GFAP-DN-erbB4 and wild type mice; assay: Mechanical sensitivity (von Frey filaments) after topical XIB4035 cream; assay type: in vivo; conditions: all groups (GFAP-DN-erbB4 and wild type) after 4 weeks of topical treatment, 1.2 mM cream
Protocol: as §1, §2

[4] = system: GFAP-DN-erbB4 mice; assay: Electron microscopy / morphometric analysis of Remak bundles in GFAP-DN-erbB4 mice; assay type: in vivo, mouse; conditions: 4-week topical treatment, 1.2 mM cream
Protocol: (§3) Preparation and Use of XIB4035. The cream containing XIB4035 (1.2 mM, Matrix Scientific, Columbia, S.C.) consisted of N-methyl-pyrrolidone (5%), isopropyl myristate (5%) and petroleum jelly (90%). Control cream had the same ingredients without XIB4035. Cream was applied twice daily to the hind paws of isoflurane anesthetized mice starting at P21 for a period of 9 days (for analysis of cell death in sciatic nerves) or 4 weeks (all other studies using GFAP-DN-erbB4). Treatment of RTX-induced neuropathy began at the time of RTX injection or 12 hours after RTX injection and proceeded twice daily for a period of one week.
(§4) Plastic Embedding and Electron Microscopy. Tissue was prepared as in (6). Briefly, mice were perfused intracardially with 2% paraformaldehyde, 2.5% gluteraldehyde and 0.03% picric acid in 0.1 M cacodylate buffer (pH 7.2). Tissue was post-fixed overnight at 4° C. and embedded in Epon. Ultrathin sections were cut, collected on cellodin-coated grids and stained using uranyl acetate and lead citrate. Photographs were taken using the Tecnai G^2 Spirit BioTWIN transmission electron microscope.

[5] = system: GFAP-DN-erbB4 mice; assay: Cell death detection (TUNEL) in sciatic nerves of GFAP-DN-erbB4 mice; assay type: in vivo, mouse; conditions: sciatic nerve, topical cream 1.2 mM twice daily for 9 days from P21
Protocol: as §3
Cell Death Detection. Sciatic nerves were dissected from mice perfused with 4% paraformaldehyde in PBS and fixed overnight at 4° C. Nerves were embedded in OCT and 16 µm thick transverse sections were processed for TUNEL as follows. Sections were washed 3 times for 5 minutes with PBS followed by proteinase K digestion (0.02 U/mL) in 10 mM TRIS/HCl pH 7.5 for 30 minutes at 37° C. Digested sections were fixed with 4% paraformaldehyde at room temperature for 20 minutes followed by 3 washes in PBS for 5 minutes. Apoptotic nuclei were identified using the In Situ Cell Death Detection Kit (Roche). Nuclei were stained with DAPI and sections were mounted with Gel-Mount.

[6] = system: GFAP-DN-erbB4 mice; assay: Footpad skin innervation (PGP9.5 immunohistochemistry) in GFAP-DN-erbB4 mice; assay type: in vivo, mouse; conditions: 4-week topical treatment, 1.2 mM cream
Protocol: as §3
(§5) Immunohistochemistry. Mice were anesthetized with 2.5% Avertin and footpad skin was removed and immersion fixed in 4% paraformaldehyde, 14% picric acid in 0.1 M phosphate buffer (pH 7.3) overnight at 4° C. and cryoprotected in 20% sucrose overnight at 4° C. Tissues were embedded in OCT and sectioned at 30 µm and stained as floating sections by washing 3 times for 5 minutes in PBS+0.1% Triton-X 100, blocked for 30 minutes in PBS+0.1% Triton-X 100+10% normal goat serum and then incubated, PGP9.5 rabbit polyclonal antibody (Ultraclone, 1:1000), overnight at 4° C. Sections were washed 3 times for 10 minutes in PBS+0.1% Triton-X 100 then incubated in donkey anti-rabbit Alexa-488 (Invitrogen) 1:300 for 2 hours at room temperature. […]

[7] = system: wild type mice; assay: Footpad skin innervation (PGP9.5 immunohistochemistry) in wild type mice; assay type: in vivo, mouse; conditions: 4-week topical treatment, 1.2 mM cream
Protocol: as §3, §5

[8] = system: RTX-injected mice; assay: Hot plate test in resiniferatoxin (RTX)-induced SFN; assay type: in vivo, mouse
Text: (§6) As it is unlikely that SFN is always caused by glial dysfunction, we considered it necessary to test the effectiveness of XIB4035 treatment on SFN resulting from a different pathogenic mechanism. Therefore we tested the efficacy of our therapeutic approach in resiniferatoxin (RTX)-induced SFN (9). RTX-induced SFN involves intraperitoneal injection of an ultrapotent capsaicin analog that targets c-fiber terminals by binding to and activating TRPV1 channels resulting in calcium influx, which induces loss of skin innervation and loss of thermal nociception (9). After RTX injection, mice were either treated immediately with XIB4035 or treatment was delayed by 12 hours. Both treatment paradigms yielded similar results.
(§7) Furthermore, innervation of the skin was preserved as a result of XIB4035 treatment in RTX-injected mice. […] Both c-fiber area and the number of fibers per Remak bundle were improved by treatment with XIB4035 in RTX-induced SFN.
as §2, with “water.” for “water. Behavioral experiments were performed in a quiet environment at the same time of day.”

[9] = system: RTX-injected mice; assay: Skin innervation in RTX-induced SFN; assay type: in vivo, mouse; conditions: topical cream 1.2 mM twice daily for one week
Text: as §6, §7
Preparation and Use of XIB4035. The cream containing XIB4035 (1.2 mM, Matrix Scientific, Columbia, S.C.) consisted of N-methyl-pyrrolidone (5%), isopropyl myristate (5%) and petroleum jelly (90%). Control cream had the same ingredients without XIB4035. […]

[10] = system: RTX-injected mice; assay: Remak bundle structure (electron microscopy) in RTX-induced SFN; assay type: in vivo, mouse; conditions: topical cream 1.2 mM twice daily for one week
Text: as §6, §7, §3, §4

[11] = biological target: T1, GFR[…]1 GDNF receptor (Homo sapiens, UniProt P56159); conditions: human cells; reference 11; cited from earlier work
T1 sequence (P56159 25-429): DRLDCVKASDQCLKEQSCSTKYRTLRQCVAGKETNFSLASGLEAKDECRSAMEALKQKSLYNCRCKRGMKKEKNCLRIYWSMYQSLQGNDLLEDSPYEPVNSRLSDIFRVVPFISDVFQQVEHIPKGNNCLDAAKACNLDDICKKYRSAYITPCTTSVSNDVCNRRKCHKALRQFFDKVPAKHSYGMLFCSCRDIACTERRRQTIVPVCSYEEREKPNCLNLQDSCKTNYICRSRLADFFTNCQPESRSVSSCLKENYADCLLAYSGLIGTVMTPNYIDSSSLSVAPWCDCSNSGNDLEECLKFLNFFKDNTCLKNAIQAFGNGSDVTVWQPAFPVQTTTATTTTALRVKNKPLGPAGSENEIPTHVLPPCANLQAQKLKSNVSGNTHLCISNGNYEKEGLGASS

[12] = biological target: T2, GFR[…]1 GDNF receptor (Mus musculus, UniProt P97785); conditions: murine cells; reference 11; cited from earlier work
T2 sequence (P97785 25-430): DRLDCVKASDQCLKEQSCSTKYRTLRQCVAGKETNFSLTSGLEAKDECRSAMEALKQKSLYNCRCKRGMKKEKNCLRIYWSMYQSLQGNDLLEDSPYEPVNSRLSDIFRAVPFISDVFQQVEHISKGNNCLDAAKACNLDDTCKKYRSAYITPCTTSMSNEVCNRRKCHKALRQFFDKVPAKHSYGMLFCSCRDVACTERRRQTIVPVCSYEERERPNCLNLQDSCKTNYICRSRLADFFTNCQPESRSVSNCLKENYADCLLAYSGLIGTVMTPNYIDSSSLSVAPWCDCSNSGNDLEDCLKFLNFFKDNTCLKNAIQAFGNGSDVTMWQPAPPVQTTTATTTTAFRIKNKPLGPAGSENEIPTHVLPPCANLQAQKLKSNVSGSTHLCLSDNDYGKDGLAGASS

CCN(CC)CCCC(C)Nc1cc(/C=C/c2ccccc2Cl)nc2cc(Cl)ccc12 (centres unmarked) [XIB4035, N4-{7-chloro-2-[(E)-2-(2-chloro-phenyl)-vinyl]-quinolin-4-yl}-N1,N1-diethyl-pentane-1,4-diamine]
thermal nociception (hot plate, response to noxious thermal stimulus) [1]: dramatic preservation of thermal nociception
behavior in response to noxious thermal stimulus [2]: remained normal
response thresholds to punctate mechanical stimuli (mechanoreception) [3]: no effect on mechanoreception
degeneration of Remak bundles and c-fiber axons [4]: prevented the degeneration of Remak bundles and c-fiber axons
number of c-fibers per Remak bundle (morphometric analysis) [4]: preserved
size of c-fiber axons (morphometric analysis) [4]: preserved
NMSC apoptosis [5]: significantly reduced
sensory nerve terminals in the footpad skin [6]: prevented degeneration of sensory nerve terminals
density of nerve terminals in skin [7]: increased the density of nerve terminals
thermal nociception ([8]; RTX model, cream 1.2 mM twice daily for one week, started at RTX injection or 12 hours later (similar results)): greatly improved thermal nociception
ability to respond to noxious heat (paw withdrawal latency) ([8]; RTX-injected mice, seven days after RTX, vs control cream): remarkable preservation of their ability to respond to noxious heat
innervation of the skin [9]: preserved
c-fiber area ([10]; RTX-induced SFN): improved
number of fibers per Remak bundle ([10]; RTX-induced SFN): improved
Remak bundle structure ([10]; RTX-injected mice): significantly improved
activation of the Ret co-receptor by binding to the GDNF receptor [11]: activate the Ret co-receptor
activation of the Ret co-receptor by binding to the GDNF receptor [12]: activate the Ret co-receptor
